Values joined by “and” are separate entries in the source; they are usually repeats but may differ in a detail not shown here. Equal entries are not always repeated. Toxic doses and inconclusive results are not listed.
Tested on: P388 leukemia ip, CD2F1 mice, survival T/C
Experiment: NCI In Vivo Anticancer Drug Screen. Data for tumor model P388 Leukemia (intraperitoneal) in CD2F1 (CDF1) mice
Settings: endpoint: median survival time, higher = longer survival
Summary of the method: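 Mice carrying the transplanted tumor received test compound or vehicle. Survival was recorded in each group, and the value is the treated-group measurement divided by that of the vehicle-treated control group.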

[1] = dose: 50.0 mg/kg/injection, schedule: Q01DX009 (ip), vehicle: Klucel (hydroxypropylcellulose) (HPC)
[2] = dose: 200.0 mg/kg/injection, schedule: Q01DX009 (ip), vehicle: Klucel (hydroxypropylcellulose) (HPC)
[3] = dose: 100.0 mg/kg/injection, schedule: Q04DX003 (ip), vehicle: saline with Tween-80
[4] = dose: 200.0 mg/kg/injection, schedule: Q04DX003 (ip), vehicle: saline with Tween-80
[5] = dose: 50.0 mg/kg/injection, schedule: Q01DX005 (ip), vehicle: Klucel (hydroxypropylcellulose) (HPC)
[6] = dose: 100.0 mg/kg/injection, schedule: Q01DX005 (ip), vehicle: Klucel (hydroxypropylcellulose) (HPC)
[7] = dose: 50.0 mg/kg/injection, schedule: Q01DX005 (ip), vehicle: saline with Tween-80
[8] = dose: 100.0 mg/kg/injection, schedule: Q01DX005 (ip), vehicle: saline with Tween-80
[9] = dose: 200.0 mg/kg/injection, schedule: Q01DX005 (ip), vehicle: saline with Tween-80
[10] = dose: 100.0 mg/kg/injection, schedule: Q04DX002 (ip), vehicle: saline with Tween-80
[11] = dose: 200.0 mg/kg/injection, schedule: Q04DX002 (ip), vehicle: saline with Tween-80
[12] = dose: 60.0 mg/kg/injection, schedule: Q01DX005 (ip), vehicle: saline with Tween-80
[13] = dose: 100.0 mg/kg/injection, schedule: Q01DX009 (ip), vehicle: saline with Tween-80
[14] = dose: 100.0 mg/kg/injection, schedule: Q01DX009 (ip), vehicle: Klucel (hydroxypropylcellulose) (HPC)
[15] = dose: 50.0 mg/kg/injection, schedule: Q01DX009 (ip), vehicle: saline with Tween-80
[16] = dose: 200.0 mg/kg/injection, schedule: Q01DX009 (ip), vehicle: saline with Tween-80
[17] = dose: 50.0 mg/kg/injection, schedule: Q01DX005 (ip), vehicle: saline

In the case of `O=C1C2C3C=CC(C3)C2C(=O)N1c1ccc2nc(SC3C=CCCC3)sc2c1` (stereo not drawn), the T/C (dose: 12.5 mg/kg/injection, schedule: Q01DX009 (ip), vehicle: Klucel (hydroxypropylcellulose) (HPC)) is reported as 100 % of control, the T/C (dose: 25.0 mg/kg/injection, schedule: Q01DX009 (ip), vehicle: Klucel (hydroxypropylcellulose) (HPC)) is reported as 106 % of control and the T/C [1] is reported as 99 % of control and 97 % of control. For the same compound, the T/C [2] was 88 % of control.

For `NC(=S)Nc1ccc(Cc2ccc(NC(N)=S)cc2)cc1`, the T/C (dose: 25.0 mg/kg/injection, schedule: Q04DX003 (ip), vehicle: saline with Tween-80) was 101 % of control, the T/C (dose: 50.0 mg/kg/injection, schedule: Q04DX003 (ip), vehicle: saline with Tween-80) was 101 % of control and the T/C [3] was 100 % of control. The T/C [4] was 99 % of control.

`CC(NNC(=S)N1CCC(c2ccccc2)CC1)c1ccc2ccccc2n1` (stereo not drawn) was tested, and the T/C [5] was 97 % of control and the T/C [6] was 105 % of control.

In the case of `COc1cccc(N=Nc2c(C)nn(C(=S)S)c2C)c1`, the T/C [7] is reported as 101 % of control, the T/C [8] is reported as 100 % of control and the T/C [9] is reported as 94 % of control.

With `C[Si](C)(C)C1=CC[C@H]2C(=O)N(c3ccccc3)C(=O)[C@H]2C1=O` the T/C [7] was 107 % of control, the T/C [8] was 118 % of control and the T/C [9] was 111 % of control.

With `COc1ccc2c3c1OC1c4[nH]ncc4C[C@H]4[C@@H](C2)N(C)CC[C@]314` (stereo partly drawn) the T/C [10] was 108 % of control and the T/C [11] was 99 % of control.

For `COc1cc(C(c2cc3c(cc2O)OCO3)N2CCCCC2)cc(OC)c1OC` (stereo not drawn), the T/C [12] was 111 % of control and 118 % of control and 123 % of control, the T/C (dose: 120.0 mg/kg/injection, schedule: Q01DX005 (ip), vehicle: saline with Tween-80) was 111 % of control and 118 % of control and the T/C (dose: 240.0 mg/kg/injection, schedule: Q01DX005 (ip), vehicle: saline with Tween-80) was 103 % of control. For the same compound, the T/C (dose: 480.0 mg/kg/injection, schedule: Q01DX005 (ip), vehicle: saline with Tween-80) was 118 % of control.

For `FC(F)(c1nc2ccccc2[nH]1)C(F)(F)C(F)(F)c1nc2ccccc2[nH]1`, the T/C [7] was 95 % of control, the T/C [8] was 89 % of control and the T/C [9] was 88 % of control.

With `CC1(C)N=c2cc3c(cc2N1c1ccc(Cl)cc1)=Nc1ccccc1N3c1ccc(Cl)cc1` the T/C (dose: 7.5 mg/kg/injection, schedule: Q01DX005 (ip), vehicle: saline with Tween-80) was 99 % of control, the T/C (dose: 15.0 mg/kg/injection, schedule: Q01DX005 (ip), vehicle: saline with Tween-80) was 90 % of control and the T/C (dose: 30.0 mg/kg/injection, schedule: Q01DX005 (ip), vehicle: saline with Tween-80) was 87 % of control. The T/C [12] was 89 % of control.

`CC(C)(c1ccccc1)c1cc(CN2CCCCC2)c(O)c(CN2CCCCC2)c1` was tested, and the T/C (dose: 0.78 mg/kg/injection, schedule: Q01DX009 (ip), vehicle: saline) was 100 % of control and 95 % of control, the T/C (dose: 1.56 mg/kg/injection, schedule: Q01DX009 (ip), vehicle: saline) was 104 % of control and 112 % of control and the T/C (dose: 3.13 mg/kg/injection, schedule: Q01DX009 (ip), vehicle: saline) was 108 % of control and 113 % of control and 121 % of control. The T/C (dose: 6.25 mg/kg/injection, schedule: Q01DX009 (ip), vehicle: saline) was 105 % of control and 90 % of control and 95 % of control, the T/C (dose: 12.5 mg/kg/injection, schedule: Q01DX009 (ip), vehicle: saline) was 94 % of control and the T/C (dose: 25.0 mg/kg/injection, schedule: Q01DX009 (ip), vehicle: saline with Tween-80) was 91 % of control. For the same compound, the T/C (dose: 25.0 mg/kg/injection, schedule: Q01DX009 (ip), vehicle: saline) was 96 % of control and the T/C [13] was 97 % of control.

`O=C1CC2(CCCCC2)CC(=O)N1c1ccc(O)c(CN2CCCCC2)c1` was tested, and the T/C [1] was 104 % of control, the T/C [14] was 108 % of control and the T/C [2] was 102 % of control.

In the case of `Oc1ccccc1-c1cc(-c2ccccc2)nc(NCCCCCCNc2nc(-c3ccccc3)cc(-c3ccccc3O)n2)n1`, the T/C [5] is reported as 90 % of control and the T/C [6] is reported as 90 % of control.

In the case of `O=C1N=C2SCCN2C(=O)C1Nc1ccc(Cl)cc1` (stereo not drawn), the T/C [10] is reported as 99 % of control, the T/C [11] is reported as 100 % of control and the T/C (dose: 400.0 mg/kg/injection, schedule: Q04DX002 (ip), vehicle: saline with Tween-80) is reported as 98 % of control.

`CC(=O)n1ccc(=O)[nH]c1=O` was tested, and the T/C [15] was 87 % of control, the T/C [13] was 96 % of control and the T/C [3] was 100 % of control. The T/C [16] was 96 % of control, the T/C [4] was 96 % of control and the T/C (dose: 400.0 mg/kg/injection, schedule: Q04DX003 (ip), vehicle: saline with Tween-80) was 96 % of control.

In the case of `O=C1CSC(c2ccccc2O)N1c1nc(-c2ccc(Cl)cc2)cs1` (stereo not drawn), the T/C (dose: 100.0 mg/kg/injection, schedule: Q01DX001 (ip), vehicle: saline with Tween-80) is reported as 100 % of control, the T/C (dose: 200.0 mg/kg/injection, schedule: Q01DX001 (ip), vehicle: saline with Tween-80) is reported as 98 % of control and the T/C (dose: 400.0 mg/kg/injection, schedule: Q01DX001 (ip), vehicle: saline with Tween-80) is reported as 87 % of control.

In the case of `Cc1c2sc3ccccc3[nH]c2nc2[nH]c3ccccc3sc12`, the T/C [7] is reported as 108 % of control, the T/C [8] is reported as 116 % of control and the T/C [9] is reported as 108 % of control.

`CSCCC(NC(=O)C(F)(F)F)C(=O)O` (stereo not drawn) was tested, and the T/C [15] was 106 % of control, the T/C [13] was 94 % of control and the T/C [16] was 94 % of control.

For `O=[N+]([O-])O.O=[N+]([O-])O.[Cu].c1cnc2c(c1)ccc1cccnc12`, the T/C (dose: 1.56 mg/kg/injection, schedule: Q04DX002 (ip), vehicle: saline) was 101 % of control and the T/C (dose: 6.25 mg/kg/injection, schedule: Q04DX002 (ip), vehicle: saline) was 99 % of control and 106 % of control.

In the case of `Cc1ccc(SCC(=O)O)c(C)c1`, the T/C [15] is reported as 88 % of control, the T/C [13] is reported as 88 % of control and the T/C [16] is reported as 94 % of control. For the same compound, the T/C (dose: 400.0 mg/kg/injection, schedule: Q01DX009 (ip), vehicle: saline with Tween-80) was 103 % of control.

`CC(C)([CH2][Sn]([CH3])([Cl])[Cl])c1ccccc1` was tested, and the T/C (dose: 0.79 mg/kg/injection, schedule: Q04DX003 (ip), vehicle: saline with Tween-80) was 99 % of control and 101 % of control, the T/C (dose: 1.56 mg/kg/injection, schedule: Q04DX003 (ip), vehicle: saline with Tween-80) was 99 % of control and 116 % of control and 98 % of control and the T/C (dose: 3.12 mg/kg/injection, schedule: Q04DX003 (ip), vehicle: saline with Tween-80) was 102 % of control and 111 % of control and 95 % of control. The T/C (dose: 6.25 mg/kg/injection, schedule: Q04DX003 (ip), vehicle: saline with Tween-80) was 104 % of control and 97 % of control and 98 % of control and the T/C (dose: 6.25 mg/kg/injection, schedule: Q04DX003 (ip), vehicle: saline) was 106 % of control.

With `Cn1cc(-n2[nH]c(=O)n(-c3ccccc3)c2=O)c(=O)n(C)c1=O` the T/C [1] was 101 % of control, the T/C [14] was 101 % of control and the T/C [2] was 96 % of control.

For `O=[N+]([O-])c1ccc(N2C(c3ccccc3)=N[C@@H](N3CCOCC3)[C@@H]2N2CCOCC2)cc1`, the T/C [5] was 101 % of control, the T/C [6] was 97 % of control and the T/C (dose: 200.0 mg/kg/injection, schedule: Q01DX005 (ip), vehicle: Klucel (hydroxypropylcellulose) (HPC)) was 95 % of control.

For `c1cc[n+](-c2nc3ccccc3[n-]2)cc1`, the T/C (dose: 100.0 mg/kg/injection, schedule: Q04DX003 (ip), vehicle: saline) was 100 % of control, the T/C (dose: 200.0 mg/kg/injection, schedule: Q04DX003 (ip), vehicle: saline) was 98 % of control and the T/C (dose: 400.0 mg/kg/injection, schedule: Q04DX003 (ip), vehicle: saline) was 100 % of control.

In the case of `NC(N)=NO`, the T/C (dose: 8.2 mg/kg/injection, schedule: Q01DX009 (ip), vehicle: water) is reported as 110 % of control, the T/C (dose: 12.0 mg/kg/injection, schedule: Q01DX009 (ip), vehicle: water) is reported as 105 % of control and the T/C (dose: 75.0 mg/kg/injection, schedule: Q01DX009 (ip), vehicle: saline) is reported as 155 % of control. The T/C (dose: 150.0 mg/kg/injection, schedule: Q01DX009 (ip), vehicle: saline) was 170 % of control.

With `NC(CCCNc1ccc(O)cc1)C(=O)O` (stereo not drawn) the T/C [17] was 100 % of control, the T/C (dose: 100.0 mg/kg/injection, schedule: Q01DX005 (ip), vehicle: saline) was 99 % of control and 104 % of control and the T/C (dose: 200.0 mg/kg/injection, schedule: Q01DX005 (ip), vehicle: saline) was 98 % of control.

`COc1cc(NCC(C)(O)CN2CCCCC2)c2ncccc2c1` (stereo not drawn) was tested, and the T/C (dose: 12.5 mg/kg/injection, schedule: Q01DX005 (ip), vehicle: saline) was 94 % of control, the T/C (dose: 25.0 mg/kg/injection, schedule: Q01DX005 (ip), vehicle: saline) was 98 % of control and the T/C [17] was 93 % of control and 97 % of control.

`[CH3][Sn]([c]1ccccc1)[c]1ccccc1` was tested, and the T/C (dose: 50.0 mg/kg/injection, schedule: Q01DX009 (ip), vehicle: saline) was 105 % of control, the T/C (dose: 100.0 mg/kg/injection, schedule: Q01DX009 (ip), vehicle: saline) was 98 % of control and the T/C (dose: 200.0 mg/kg/injection, schedule: Q01DX009 (ip), vehicle: saline) was 113 % of control.
